Patent US9693556B2, “Herbicidal pyridazinone derivatives” (SYNGENTA LIMITED, priority 2011, dated 2017)

Tests used:
Format in all cases: in vivo
[1] = system: Amaranthus retoflexus (AMARE); test: Pre-emergence herbicidal glasshouse test on Amaranthus retoflexus; details: pre-emergence; 1000 g/h; evaluated after 13 days
Outline: (§1)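 Application rate 1000 g/h, formulated in acetone/water (50:50) with 0.5% Tween 20 and sprayed onto pots sown 1 day (pre-emergence) or 8 days (post-emergence) earlier. Evaluation at 13 days rated damage from 1 (0-19%) to 5 (80-100%).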

[2] = system: Ipomoea hederacea (IPOHE); test: Post-emergence herbicidal glasshouse test on Ipomoea hederacea; details: post-emergence; 1000 g/h; evaluated after 13 days
Outline: as §1

Solanum nigrum (SOLNI) [3] = test: Post-emergence herbicidal glasshouse test on Solanum nigrum; details: post-emergence; 1000 g/h; evaluated after 13 days
Outline: as §1

[4] = system: Echinochloa crus-galli (ECHCG); test: Pre-emergence herbicidal glasshouse test on Echinochloa crus-galli; details: pre-emergence; 1000 g/h; evaluated after 13 days
Outline: as §1

[5] = system: Ipomoea hederacea (IPOHE); test: Pre-emergence herbicidal glasshouse test on Ipomoea hederacea; details: pre-emergence; 1000 g/h; evaluated after 13 days
Outline: as §1

Setaria faberi (SETFA) [6] = test: Pre-emergence herbicidal glasshouse test on Setaria faberi; details: pre-emergence; 1000 g/h; evaluated after 13 days
Outline: as §1

[7] = system: Echinochloa crus-galli (ECHCG); test: Post-emergence herbicidal glasshouse test on Echinochloa crus-galli; details: post-emergence; 1000 g/h; evaluated after 13 days
Outline: as §1

[8] = system: Alopecurus myosuroides (ALOMY); test: Pre-emergence herbicidal glasshouse test on Alopecurus myosuroides; details: pre-emergence; 1000 g/h; evaluated after 13 days
Outline: as §1

Setaria faberi (SETFA) [9] = test: Post-emergence herbicidal glasshouse test on Setaria faberi; details: post-emergence; 1000 g/h; evaluated after 13 days
Outline: as §1

[10] = system: Alopecurus myosuroides (ALOMY); test: Post-emergence herbicidal glasshouse test on Alopecurus myosuroides; details: post-emergence; 1000 g/h; evaluated after 13 days
Outline: as §1

[11] = system: Amaranthus retoflexus (AMARE); test: Post-emergence herbicidal glasshouse test on Amaranthus retoflexus; details: post-emergence; 1000 g/h; evaluated after 13 days
Outline: as §1

Solanum nigrum (SOLNI) [12] = test: Pre-emergence herbicidal glasshouse test on Solanum nigrum; details: pre-emergence; 1000 g/h; evaluated after 13 days
Outline: as §1

COc1cc(-c2c(C(F)(F)F)ccn(-c3cnn(C)c(=O)c3O)c2=O)cc(OC)c1OC [Compound 7.021]
4 (4=60-79% damage): POST Application IPOHE herbicidal damage (five point scale) [2] | PRE Application IPOHE herbicidal damage (five point scale) [5]
5 (5=80-100% damage): PRE Application AMARE herbicidal damage (five point scale) [1] | POST Application SOLNI herbicidal damage (five point scale) (Solanum nigrum (SOLNI) [3]) | PRE Application ECHCG herbicidal damage (five point scale) [4] | PRE Application SETFA herbicidal damage (five point scale) (Setaria faberi (SETFA) [6]) | POST Application ECHCG herbicidal damage (five point scale) [7] | PRE Application ALOMY herbicidal damage (five point scale) [8] | POST Application SETFA herbicidal damage (five point scale) (Setaria faberi (SETFA) [9]) | POST Application ALOMY herbicidal damage (five point scale) [10] | POST Application AMARE herbicidal damage (five point scale) [11] | PRE Application SOLNI herbicidal damage (five point scale) (Solanum nigrum (SOLNI) [12])

Cn1ncc(-n2ccc(C(F)(F)F)c(-c3cc(Cl)cc(Cl)c3)c2=O)c(O)c1=O [Compound 7.022]
4 (4=60-79% damage): POST Application ALOMY herbicidal damage (five point scale) [10]
2 (2=20-39% damage): POST Application IPOHE herbicidal damage (five point scale) [2] | PRE Application IPOHE herbicidal damage (five point scale) [5]
5 (5=80-100% damage): PRE Application AMARE herbicidal damage (five point scale) [1] | POST Application SOLNI herbicidal damage (five point scale) (Solanum nigrum (SOLNI) [3]) | PRE Application ECHCG herbicidal damage (five point scale) [4] | PRE Application SETFA herbicidal damage (five point scale) (Setaria faberi (SETFA) [6]) | POST Application ECHCG herbicidal damage (five point scale) [7] | PRE Application ALOMY herbicidal damage (five point scale) [8] | POST Application SETFA herbicidal damage (five point scale) (Setaria faberi (SETFA) [9]) | POST Application AMARE herbicidal damage (five point scale) [11] | PRE Application SOLNI herbicidal damage (five point scale) (Solanum nigrum (SOLNI) [12])

Cn1ncc(-n2ccc(C(F)(F)F)c(-c3cccc(S(C)(=O)=O)c3)c2=O)c(O)c1=O [Compound 7.023]
5 (5=80-100% damage): PRE Application AMARE herbicidal damage (five point scale) [1] | POST Application SOLNI herbicidal damage (five point scale) (Solanum nigrum (SOLNI) [3]) | POST Application AMARE herbicidal damage (five point scale) [11] | PRE Application SOLNI herbicidal damage (five point scale) (Solanum nigrum (SOLNI) [12])
2 (2=20-39% damage): PRE Application ECHCG herbicidal damage (five point scale) [4] | PRE Application IPOHE herbicidal damage (five point scale) [5] | PRE Application ALOMY herbicidal damage (five point scale) [8]
4 (4=60-79% damage): PRE Application SETFA herbicidal damage (five point scale) (Setaria faberi (SETFA) [6]) | POST Application ECHCG herbicidal damage (five point scale) [7] | POST Application SETFA herbicidal damage (five point scale) (Setaria faberi (SETFA) [9])
1 (1=0-19% damage): POST Application IPOHE herbicidal damage (five point scale) [2] | POST Application ALOMY herbicidal damage (five point scale) [10]

Cc1ccc(-c2c(C(F)(F)F)ccn(-c3cnn(C)c(=O)c3O)c2=O)cc1[N+](=O)[O-] [Compound 7.027]
2 (2=20-39% damage): POST Application IPOHE herbicidal damage (five point scale) [2]
1 (1=0-19% damage): PRE Application IPOHE herbicidal damage (five point scale) [5]
3 (3=40-59% damage): PRE Application SETFA herbicidal damage (five point scale) (Setaria faberi (SETFA) [6]) | PRE Application ALOMY herbicidal damage (five point scale) [8] | POST Application ALOMY herbicidal damage (five point scale) [10]
5 (5=80-100% damage): PRE Application AMARE herbicidal damage (five point scale) [1] | POST Application SOLNI herbicidal damage (five point scale) (Solanum nigrum (SOLNI) [3]) | PRE Application ECHCG herbicidal damage (five point scale) [4] | POST Application ECHCG herbicidal damage (five point scale) [7] | POST Application SETFA herbicidal damage (five point scale) (Setaria faberi (SETFA) [9]) | POST Application AMARE herbicidal damage (five point scale) [11] | PRE Application SOLNI herbicidal damage (five point scale) (Solanum nigrum (SOLNI) [12])

Cn1ncc(-n2ccc(C(F)(F)F)c(-c3cccc(Cl)c3Cl)c2=O)c(O)c1=O [Compound 7.029]
1 (1=0-19% damage): PRE Application IPOHE herbicidal damage (five point scale) [5] | PRE Application SETFA herbicidal damage (five point scale) (Setaria faberi (SETFA) [6])
2 (2=20-39% damage): PRE Application ECHCG herbicidal damage (five point scale) [4] | PRE Application ALOMY herbicidal damage (five point scale) [8] | POST Application SETFA herbicidal damage (five point scale) (Setaria faberi (SETFA) [9])
4 (4=60-79% damage): POST Application IPOHE herbicidal damage (five point scale) [2]
5 (5=80-100% damage): PRE Application AMARE herbicidal damage (five point scale) [1] | POST Application SOLNI herbicidal damage (five point scale) (Solanum nigrum (SOLNI) [3]) | POST Application ECHCG herbicidal damage (five point scale) [7] | POST Application AMARE herbicidal damage (five point scale) [11] | PRE Application SOLNI herbicidal damage (five point scale) (Solanum nigrum (SOLNI) [12])
3 (3=40-59% damage): POST Application ALOMY herbicidal damage (five point scale) [10]
